These results are taken from ChEMBL document CHEMBL3822364, “Synthesis, characterization and antimicrobial activity of novel Schiff base tethered boronate esters of 1,2-O-isopropylidene-α-d-xylofuranose” (2016).

Converted amounts (≈) assume the structure as drawn.

The first experiment has as its system Staphylococcus aureus. Kind of experiment: Antibacterial activity against Staphylococcus aureus MTCC 3160 measured after 24 hrs by NCCL protocol based broth dilution method. It is filed as functional. Particulars: MTCC 3160, 24 h.
With `CC1(C)O[C@H]2O[C@@H]3COB(c4ccc(/C=N/c5ccccc5)cc4)O[C@@H]3[C@H]2O1`, the MIC came out at 125 µg/mL (≈ 330 µM).

Consider `CCOc1cccc(/C=N/c2cccc(B3OC[C@H]4O[C@@H]5OC(C)(C)O[C@@H]5[C@H]4O3)c2)c1O`, for which the MIC stood at 250 µg/mL (≈ 569 µM). Compared with the last compound, the MIC is about 2-fold higher.

In the next experiment the test system is Salmonella typhi. Description: Antibacterial activity against Salmonella typhi assessed as zone of inhibition at 100 ug/well measured after 24 hrs by agar well diffusion method. The format is functional, Salmonella enterica subsp. enterica serovar Typhi. The following applies: Salmonella enterica, read-out: DIZ.
As for `CC1(C)O[C@H]2O[C@@H]3COB(c4ccc(/C=N/c5ccccc5)cc4)O[C@@H]3[C@H]2O1`, the zone of inhibition at 100 µg/disc was determined as 20 mm.

Regarding `CCOc1cccc(/C=N/c2cccc(B3OC[C@H]4O[C@@H]5OC(C)(C)O[C@@H]5[C@H]4O3)c2)c1O`, the zone of inhibition at 100 µg/disc turned out to be 24 mm.

The next experiment relates to Streptococcus mutans. Kind of experiment: Antibacterial activity against Streptococcus mutans MTCC 497 assessed as zone of inhibition at 100 ug/well measured after 24 hrs by agar well diffusion method. Particulars: MTCC 497, 24 h, read-out: DIZ. It is filed as functional.
On to `CC1(C)O[C@H]2O[C@@H]3COB(c4ccc(/C=N/c5ccccc5)cc4)O[C@@H]3[C@H]2O1`, for which the zone of inhibition at 100 µg/disc was determined as 21 mm.

As for `CCOc1cccc(/C=N/c2cccc(B3OC[C@H]4O[C@@H]5OC(C)(C)O[C@@H]5[C@H]4O3)c2)c1O`, the zone of inhibition at 100 µg/disc amounted to 16 mm.

Another experiment deals with Salmonella typhi. Kind of experiment: Antibacterial activity against Salmonella typhi measured after 24 hrs by NCCL protocol based broth dilution method. The following applies: Salmonella enterica. It is filed as functional, Salmonella enterica subsp. enterica serovar Typhi.
`CC1(C)O[C@H]2O[C@@H]3COB(c4ccc(/C=N/c5ccccc5)cc4)O[C@@H]3[C@H]2O1` registered an MIC of 62.5 µg/mL (≈ 165 µM).

In turn, `CCOc1cccc(/C=N/c2cccc(B3OC[C@H]4O[C@@H]5OC(C)(C)O[C@@H]5[C@H]4O3)c2)c1O` registered an MIC of 31.2 µg/mL (≈ 71.1 µM).

For the next experiment, the system named is Salmonella paratyphi. Description: Antibacterial activity against Salmonella paratyphi assessed as zone of inhibition at 100 ug/well measured after 24 hrs by agar well diffusion method. It is filed as functional, Salmonella enterica subsp. enterica serovar Paratyphi A. The following applies: Salmonella enterica, read-out: DIZ.
On to `CC1(C)O[C@H]2O[C@@H]3COB(c4ccc(/C=N/c5ccccc5)cc4)O[C@@H]3[C@H]2O1`, for which the zone of inhibition at 100 µg/disc came to 0 mm.

Regarding `CCOc1cccc(/C=N/c2cccc(B3OC[C@H]4O[C@@H]5OC(C)(C)O[C@@H]5[C@H]4O3)c2)c1O`, the zone of inhibition at 100 µg/disc was 14 mm.

The subject of another experiment is Staphylococcus aureus. Kind of experiment: Antibacterial activity against Staphylococcus aureus MTCC 3160 assessed as zone of inhibition at 100 ug/well measured after 24 hrs by agar well diffusion method. The format is functional. The following applies: MTCC 3160, 24 h, read-out: DIZ.
Turning to `CC1(C)O[C@H]2O[C@@H]3COB(c4ccc(/C=N/c5ccccc5)cc4)O[C@@H]3[C@H]2O1`, the zone of inhibition at 100 µg/disc came out at 16 mm.

In the case of `CCOc1cccc(/C=N/c2cccc(B3OC[C@H]4O[C@@H]5OC(C)(C)O[C@@H]5[C@H]4O3)c2)c1O`, the zone of inhibition at 100 µg/disc came to 0 mm.

The subject of the next experiment is Micrococcus luteus. Kind of experiment: Antibacterial activity against Micrococcus luteus MTCC 106 measured after 24 hrs by NCCL protocol based broth dilution method. The format is functional. Particulars: MTCC 106, 24 h.
As for `CC1(C)O[C@H]2O[C@@H]3COB(c4ccc(/C=N/c5ccccc5)cc4)O[C@@H]3[C@H]2O1`, 250 µg/mL (≈ 659 µM) was the least that counted as inhibitory (MIC).

`CCOc1cccc(/C=N/c2cccc(B3OC[C@H]4O[C@@H]5OC(C)(C)O[C@@H]5[C@H]4O3)c2)c1O` yielded an MIC of 125 µg/mL (≈ 285 µM).

A further experiment has as its system Aspergillus fumigatus. Kind of experiment: Antifungal activity against Aspergillus fumigatus MTCC 343 assessed as zone of inhibition at 100 ug/well measured after 48 hrs by agar well diffusion method. It is filed as functional. The following applies: MTCC 343, 48 h, read-out: DIZ.
On to `CC1(C)O[C@H]2O[C@@H]3COB(c4ccc(/C=N/c5ccccc5)cc4)O[C@@H]3[C@H]2O1`, for which the zone of inhibition at 100 µg/disc came to 0 mm.

As for `CCOc1cccc(/C=N/c2cccc(B3OC[C@H]4O[C@@H]5OC(C)(C)O[C@@H]5[C@H]4O3)c2)c1O`, the zone of inhibition at 100 µg/disc came to 21 mm.

The subject of another experiment is Klebsiella pneumoniae. Description: Antibacterial activity against Klebsiella pneumoniae MTCC 3384 assessed as zone of inhibition at 100 ug/well measured after 24 hrs by agar well diffusion method. The format is functional. Particulars: MTCC 3384, 24 h, read-out: DIZ.
Regarding `CC1(C)O[C@H]2O[C@@H]3COB(c4ccc(/C=N/c5ccccc5)cc4)O[C@@H]3[C@H]2O1`, the zone of inhibition at 100 µg/disc worked out at 21 mm.

In the case of `CCOc1cccc(/C=N/c2cccc(B3OC[C@H]4O[C@@H]5OC(C)(C)O[C@@H]5[C@H]4O3)c2)c1O`, the zone of inhibition at 100 µg/disc was 12 mm.

For the next experiment, the system named is Candida albicans. Kind of experiment: Antifungal activity against Candida albicans MTCC 3017 assessed as zone of inhibition at 100 ug/well measured after 48 hrs by agar well diffusion method. The format is functional. The following applies: MTCC 3017, 48 h, read-out: DIZ.
`CC1(C)O[C@H]2O[C@@H]3COB(c4ccc(/C=N/c5ccccc5)cc4)O[C@@H]3[C@H]2O1`: the zone of inhibition at 100 µg/disc was 11 mm.

As for `CCOc1cccc(/C=N/c2cccc(B3OC[C@H]4O[C@@H]5OC(C)(C)O[C@@H]5[C@H]4O3)c2)c1O`, the zone of inhibition at 100 µg/disc is 18 mm.

The next experiment deals with Candida albicans. Kind of experiment: Antifungal activity against Candida albicans MTCC 3017 measured after 48 hrs by NCCL protocol based broth dilution method. The format is functional. The following applies: MTCC 3017, 48 h.
`CC1(C)O[C@H]2O[C@@H]3COB(c4ccc(/C=N/c5ccccc5)cc4)O[C@@H]3[C@H]2O1`: the lowest concentration to inhibit growth (MIC) was 125 µg/mL (≈ 330 µM).

As to `CCOc1cccc(/C=N/c2cccc(B3OC[C@H]4O[C@@H]5OC(C)(C)O[C@@H]5[C@H]4O3)c2)c1O`, the MIC stood at 62.5 µg/mL (≈ 142 µM).

A further experiment deals with Klebsiella pneumoniae. Kind of experiment: Antibacterial activity against Klebsiella pneumoniae MTCC 3384 measured after 24 hrs by NCCL protocol based broth dilution method. The format is functional. Particulars: MTCC 3384, 24 h.
As to `CC1(C)O[C@H]2O[C@@H]3COB(c4ccc(/C=N/c5ccccc5)cc4)O[C@@H]3[C@H]2O1`, the MIC came to 62.5 µg/mL (≈ 165 µM).

Turning to `CCOc1cccc(/C=N/c2cccc(B3OC[C@H]4O[C@@H]5OC(C)(C)O[C@@H]5[C@H]4O3)c2)c1O`, the MIC was 125 µg/mL (≈ 285 µM).

For the next experiment, the system named is Aspergillus fumigatus. Description: Antifungal activity against Aspergillus fumigatus MTCC 343 measured after 48 hrs by NCCL protocol based broth dilution method. The format is functional. Particulars: MTCC 343, 48 h.
Compound `CC1(C)O[C@H]2O[C@@H]3COB(c4ccc(/C=N/c5ccccc5)cc4)O[C@@H]3[C@H]2O1` had an MIC of 500 µg/mL (≈ 1320 µM).

Compound `CCOc1cccc(/C=N/c2cccc(B3OC[C@H]4O[C@@H]5OC(C)(C)O[C@@H]5[C@H]4O3)c2)c1O` showed an MIC of 62.5 µg/mL (≈ 142 µM).

In another experiment the test system is Micrococcus luteus. Kind of experiment: Antibacterial activity against Micrococcus luteus MTCC 106 assessed as zone of inhibition at 100 ug/well measured after 24 hrs by agar well diffusion method. The format is functional. The following applies: MTCC 106, 24 h, read-out: DIZ.
Turning to `CC1(C)O[C@H]2O[C@@H]3COB(c4ccc(/C=N/c5ccccc5)cc4)O[C@@H]3[C@H]2O1`, the zone of inhibition at 100 µg/disc was found to be 14 mm.

As for `CCOc1cccc(/C=N/c2cccc(B3OC[C@H]4O[C@@H]5OC(C)(C)O[C@@H]5[C@H]4O3)c2)c1O`, the zone of inhibition at 100 µg/disc amounted to 15 mm.

The test system of the next experiment is Salmonella paratyphi. Kind of experiment: Antibacterial activity against Salmonella paratyphi measured after 24 hrs by NCCL protocol based broth dilution method. The format is functional, Salmonella enterica subsp. enterica serovar Paratyphi A. Particulars: Salmonella enterica.
As for `CC1(C)O[C@H]2O[C@@H]3COB(c4ccc(/C=N/c5ccccc5)cc4)O[C@@H]3[C@H]2O1`, the MIC came out at 500 µg/mL (≈ 1320 µM).

Regarding `CCOc1cccc(/C=N/c2cccc(B3OC[C@H]4O[C@@H]5OC(C)(C)O[C@@H]5[C@H]4O3)c2)c1O`, inhibition of growth (MIC) required 250 µg/mL (≈ 569 µM).

For a further experiment, the system named is Streptococcus mutans. Description: Antibacterial activity against Streptococcus mutans MTCC 497 measured after 24 hrs by NCCL protocol based broth dilution method. The format is functional. The following applies: MTCC 497, 24 h.
As for `CC1(C)O[C@H]2O[C@@H]3COB(c4ccc(/C=N/c5ccccc5)cc4)O[C@@H]3[C@H]2O1`, the MIC was found to be 62.5 µg/mL (≈ 165 µM).

`CCOc1cccc(/C=N/c2cccc(B3OC[C@H]4O[C@@H]5OC(C)(C)O[C@@H]5[C@H]4O3)c2)c1O` showed an MIC of 125 µg/mL (≈ 285 µM). This MIC is about 2-fold higher than that of the compound before.
